According to patent US6077519A, “Methods for isolation and use of T cell epitopes eluted from viable cells in vaccines for treating cancer patients” (University of Pittsburgh, priority 1997, dated 2000):
Entries after “also recorded” stand apart in the source; their conditions may differ. Ends that are not written are not given here.

B1: recombinant murine interleukin 12 (protein, UniProt P43431 23-215; P43432 23-335, looked up)
Interleukin-12 subunit alpha: RVIPVSGPARCLSQSRNLLKTTDDMVKTAREKLKHYSCTAEDIDHEDITRDQTSTLKTCLPLELHKNESCLATRETSSTTRGSCLPPQKTSLMMTLCLGSIYEDLKMYQTEFQAINAALQNHNHQQIILDKGMLVAIDELMQSLNHNGETLRQKPPVGEADPYRVKMKLCILLHAFSTRVVTINRVMGYLSSA
Interleukin-12 subunit beta: MWELEKDVYVVEVDWTPDAPGETVNLTCDTPEEDDITWTSDQRHGVIGSGKTLTITVKEFLDAGQYTCHKGGETLSHSHLLLHKKENGIWSTEILKNFKNKTFLKCEAPNYSGRFTCSWLVQRNMDLKFNIKSSSSSPDSRAVTCGMASLSAEKVTLDQRDYEKYSVSCQEDVTCPTAEETLPIELALEARQQNKYENYSTSFFIRDIIKPDPPKNLQMKPLKNSQVEVSWEYPDSWSTPHSYFSLKFFVRIQRKKEKMKETEEGCNQKGAFLVEKTSTEVQCKGGNVCVQAQDRYYNSSCSKWACVPCRVRS

Tests used:
HLA-A2 [1] = molecular target: T1, HLA-A2 (Homo sapiens, UniProt P04439); experiment: HLA-A2 stabilization assay on T2 cells; type: binding; settings: MA2.1
T1 construct: peptide stabilization read with MA2.1 by flow cytometry

Mel 624 [2] = experiment: induction of anti-melanoma CTL from melanoma patient PBMC by peptide-pulsed autologous DC, lysis of Mel 624; type: cell-based, human; settings: for Patient PBL Response (responders/patients): lysis of Mel 624 >20% at E:T 10:1, >80% inhibited by BB7.2
Excerpt: Heparinized peripheral blood was obtained by venipuncture from 15 HLA-A2^+ normal donors and 10 HLA-A2^+ donors with AJCC Stage III or IV melanoma treated at the University of Pittsburgh Cancer Institute/University of Pittsburgh School of Medicine. Peripheral blood mononuclear cells ("PBMC") were obtained after density centrifugation on Ficoll-Hypaque gradients per the manufacturer's protocol (LSM, Organon-Teknika, Durham, N.C.). […] Non-adherent cells were frozen in liquid nitrogen in 90% fetal bovine serum/10% DMSO and were retained as T cell enriched responder populations. Plastic adherent cells were cultured for 5-7 days in AIM-V medium supplemented with 1000 U rIL-4/ml+1000 U rGM-CSF/ml at 37° C., 5% CO2 and served as the source of autologous dendritic cells. No medium was added or removed during this culture period. […] Gradient interface cells were harvested, washed with HBSS, and used in phenotypic and functional assays, as outlined below. Cells generated in this way were determined to be greater than 90% DC based on morphology and the expression of a CD1a+, CD1b+, CD1c+, CD3-, CD14-, CD16-, CD20-, CD40+, CD80+, CD83+, CD86+, MHC class II+phenotype assessed by flow cytometry.
(§1) Plastic non-adherent DC (1-2×10^6) were harvested from IL-4+GM-CSF cultures on days 7, 14, 21, and 28, and washed twice with HBSS. […] Peptide-pulsing (10 μM final peptide concentration) was allowed to proceed for 2 hours at 37° C., at which time, the cells were washed twice with HBSS, resuspended in 1 ml of AIM-V and irradiated (2500 rad) using a cesium source. Day 7 peptide-pulsed DC were used to "prime" freshly-thawed, autologous PBMC (plastic adherent depleted) responders at a 20:1 responder-to-stimulator ratio. Responding T cells were restimulated weekly (for 4 weeks) using irradiated, peptide-pulsed autologous DC at a 20:1 responder-to-restimulator ratio in AIM-V medium containing 60 IU/ml rhIL-2 (Chiron, Emeryville, Calif.).
(§2) Four hour chromium release assays were performed as described previously. Target cells were labeled with 100 μCi (Na2^51 CrO4, Dupont-New England Nuclear, Bedford, Mass.) at 37° C. for 1-2 hours prior to being washed three times with HBSS. 10^4 51 Cr-labeled cells were added to each target well±effector cells for 4 h, 37° C., 5% CO2 in a total volume of 200 μl.
Autologous, cultured d7 IL-4+GM-CSF PB-DC were pulsed with the indicated peptides for 2h at room temperature prior to washing and use as stimulators for CTL induction in vitro. […] 12 HLA-A2+ normal donors and 10 HLA-A2+ patients with metastatic melanoma were screened.
In parallel experiments, PBMC derived from 10 patients diagnosed with AJCC stage III or IV melanoma were stimulated with autologous DC pulsed with these same series of peptides.

Mel 624 [3] = experiment: induction of anti-melanoma CTL from normal donor PBMC by peptide-pulsed autologous DC, lysis of Mel 624; type: cell-based, human; settings: for Normal PBL Response (responders/donors): lysis of Mel 624 >20% at E:T 10:1, >80% inhibited by BB7.2; for Peak week of CTL reactivity, Normal PBL / number of stimulations to induce anti-melanoma CTL: normal donors; for lysis of Mel 624 by induced anti-melanoma CTL: E:T 10:1, normal donors
Description: Peripheral blood mononuclear cells ("PBMC") were obtained after density centrifugation on Ficoll-Hypaque gradients per the manufacturer's protocol (LSM, Organon-Teknika, Durham, N.C.). […] Non-adherent cells were frozen in liquid nitrogen in 90% fetal bovine serum/10% DMSO and were retained as T cell enriched responder populations. Plastic adherent cells were cultured for 5-7 days in AIM-V medium supplemented with 1000 U rIL-4/ml+1000 U rGM-CSF/ml at 37° C., 5% CO2 and served as the source of autologous dendritic cells. No medium was added or removed during this culture period. […] Gradient interface cells were harvested, washed with HBSS, and used in phenotypic and functional assays, as outlined below. Cells generated in this way were determined to be greater than 90% DC based on morphology and the expression of a CD1a+, CD1b+, CD1c+, CD3-, CD14-, CD16-, CD20-, CD40+, CD80+, CD83+, CD86+, MHC class II+phenotype assessed by flow cytometry.
as §1, §2
PBMC responder T cells derived from normal donors (n=12) were repetitively stimulated weekly for 1-4 weeks with irradiated, autologous cultured dendritic cells pre-pulsed with either no peptide or individually pulsed with the previously identified, HLA-A2-presented melanoma peptides listed in Table 9, below.
Autologous, cultured d7 IL-4+GM-CSF PB-DC were pulsed with the indicated peptides for 2h at room temperature prior to washing and use as stimulators for CTL induction in vitro. […] 12 HLA-A2+ normal donors and 10 HLA-A2+ patients with metastatic melanoma were screened. […] Peak week of CTL reactivity is noted in parentheses.

A42-clone = settings: read-out: half-maximal sensitization for lysis, T2, E:T 10:1
Description: (§3) Peptide loading was facilitated by the presence of the β2 -m and MA2.1 reagents as described by Zeh, H. J., et al., Hum. […] The cells were then incubated for 2 hours at room temperature.

TIL 1235 = settings: TIL 1235, data not shown
TIL 5403 = settings: TIL 5403, data not shown
CTL clone A42 = settings: CTL clone A42, data not shown
T2 target cells = experiment: CTL lysis of p939-pulsed T2 target cells; type: cell-based, human; settings: without exogenous β2 -m and MA2.1
Description: as §3

GL1 CTL = type: cell-based, human
HLA-A2 [4] = molecular target: T1, HLA-A2; settings: reported by Cox et al.; cited from earlier work
MCA205 fibrosarcoma = experiment: in vivo therapy of established MCA205 tumors in C57BL/6 mice; set-up: species or system mouse; settings: day 4 (but not day 8) tumor models
Description: Before being used in vaccines, DC were pulsed overnight with crude, unfractionated, acid-eluted peptides derived from relevant tumors or control syngeneic spleens. Peptide-pulsed DC were extensively washed and then irradiated (3,000 rads) before i.v. injection in the tail vein of tumor-bearing animals. In the fibrocarcinoma MCA205 and mammary adenocarcinoma TS/A tumor models, animals were injected three to four times, starting at day 4 or day 8 after tumor establishment and subsequently, every 4 days, with 3-5×10^5 DC pulsed with peptides. Alternatively, in the C3 tumor model, animals were injected on days 14, 21, and 28 after initial intradermal (i.d.) tumor inoculation.
1 million BM-DC were pulsed with peptides derived from 10^8 to 10^9 cells (tumor or spleen) in a total volume of 1-2 ml of DC media overnight at 37° C., 55 CO2. Splenocytes freshly harvested from B6 animals were used as a cellular source of irrelevant peptides.
Twice the minimal tumorigenic dose of tumor cells (2×10^5 MCA205, 10^5 TS/A, or 2×10^6 C3) were injected intradermally ("i.d.") in the right flank of mice. […] The mean tumor size was monitored biweekly. […]
50 μg of CTLA4-IgG1 was admixed with DC-MCA205 or DC-TS/A in vitro, and the mixture was then administered in the tail vein of tumor-bearing animals (three to four injections every 4 days). […] Depletion of CD4^+ and CD8^+ T cells was monitored by flow cytometry. […]

T1 sequence (P04439 25-365): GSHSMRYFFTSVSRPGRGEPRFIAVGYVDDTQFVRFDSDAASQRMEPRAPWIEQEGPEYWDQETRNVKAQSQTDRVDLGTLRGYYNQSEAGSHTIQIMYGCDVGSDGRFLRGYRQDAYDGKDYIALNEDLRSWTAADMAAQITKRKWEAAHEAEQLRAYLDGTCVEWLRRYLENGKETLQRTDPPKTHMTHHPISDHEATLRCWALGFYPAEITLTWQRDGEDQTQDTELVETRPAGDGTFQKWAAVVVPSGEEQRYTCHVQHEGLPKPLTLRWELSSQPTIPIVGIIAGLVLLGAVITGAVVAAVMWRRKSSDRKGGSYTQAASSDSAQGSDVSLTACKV
T1 sequence (P61769 21-119 partner): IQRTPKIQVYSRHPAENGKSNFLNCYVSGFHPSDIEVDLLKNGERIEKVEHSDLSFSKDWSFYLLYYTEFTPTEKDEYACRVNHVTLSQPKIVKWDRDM

Molecule | HLA-A2 stabilization / binding (HLA-A2 [1]) | Patient PBL Response (responders/patients) (Mel 624 [2]) | Peak week of CTL reactivity, Patient PBL (Mel 624 [2]; melanoma patients) | Normal PBL Response (responders/donors) (Mel 624 [3]) | Peak week of CTL reactivity, Normal PBL (Mel 624 [3]) | also measured
Asp-Gly-Leu-Ala-Pro-Pro-Gln-His-Leu-Ile-Arg (DGLAPPQHLIR) [p53 186-196] | stabilized HLA-A2 very poorly | – | – | – | – | –
FLWGPRALV [MAGE-3] | – | 1/3 | 3 wk | 0/4 | – | –
ILTVILGVL [p939] | less effective; also recorded: low affinity | 9/10 | 3-4 wk | 9/12 | 3-4 wk | EC50 (A42-clone): ~3 nM; lowest dose with peptide-specific release of interferon-γ (TIL 1235): 1 pM; recognition and lysis of peptide-pulsed T2 cells (TIL 5403): able to recognize and lyse T2 cells; lowest dose with peptide-specific release of interferon-γ (CTL clone A42): 1 pM; CTL reactivity over background (T2 target cells): 5-10%
LLDGTATLRL [gp100 457-466] | – | 0/10 | – | 0/12 | – | –
Lys-Gly-Ile-Leu-Gly-Phe-Val-Phe--Thr-Leu-Thr-Val [Flu M1] | – | – | – | – | – | GL1 lysis of peptide-pulsed HLA-A2+ targets (GL1 CTL): lysed
MLLAVLYCL [Tyrosinase 1-9] | – | 0/10 | – | 1/12 | – | –
Tyr-Leu-Glu-Pro-Gly-Pro-Val-Thr-Ala [gp100 280-288] | comparable | 8/10 | 3-4 wk | 9/12 | 3-4 wk | binding to HLA-A2 (HLA-A2 [4]): intermediate-to-low affinity; immunodominance by kinetics and magnitude of response (Mel 624 [2]; melanoma patients): immunodominant epitopes; lysis of Mel 624 by induced anti-melanoma CTL (Mel 624 [3]): greater than 20%; number of stimulations to induce anti-melanoma CTL (Mel 624 [3]): 2-3 stimulations
YMDGTMSQV [Tyrosinase 368-376] | – | 6/10 | – | 7/12 | 3-4 wk | lysis of Mel 624 by induced anti-melanoma CTL (Mel 624 [3]): greater than 20%; number of stimulations to induce anti-melanoma CTL (Mel 624 [3]): 2-3 stimulations
B1 | – | – | – | – | – | therapeutic effect alone (MCA205 fibrosarcoma): beneficial therapeutic effect
